Experimental data: patent US20230043863A1, “HETEROAROMATIC DERIVATIVES FOR USE AS REGULATOR, PREPARATION METHOD THEREFOR AND USE THEREOF” (JIANGSU HANSOH PHARMACEUTICAL GROUP CO., LTD., priority 2018, published 2023)
Like-named read-outs stand apart in the source and are kept apart here.

Tests used:
[1] = Balb/C mouse pharmacokinetics (plasma, colon, ileum); type: in vivo; settings: male, po, Balb/C mice, p.o. 5 mg/kg; for Cmax: read-out: Blood concentration Cmax; for AUC(0-t): read-out: Curve area AUC0-t; for MRT: read-out: Mean detention time MRT; for Tmax: read-out: Time to peak tmax; for AUC(0-inf): read-out: Curve area AUC0-∞; for half-life: read-out: Half life period t1/2 (converted)
Method in brief: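 Male Balb/C mice (12 per group), fasted overnight, given 5 mg/kg p.o.; plasma, ileum and colon sampled at 0–7 h. Drug levels by LC/MS/MS, […]; parameters include colon/ileum and colon/plasma concentration ratios.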

[2] = tested on: C57BL/6 mouse colitis model induced by DSS; test: C57BL/6 mouse colitis model induced by DSS, daily disease index; type: in vivo; settings: po, 216 h, 10 mg/kg p.o. BID, Day 0-9, vs vehicle group, read-out: reduction ratio of DAI AUC
Method: To evaluate the drug efficacy of the embodiment compound on the C57BL/6 mouse colitis model induced by DSS (dextran sulfate sodium).
According to the weight of the animal, BioBook software was used to randomly group the animals on day −1 to ensure that the weight values of each group of animals were similar to reduce deviation, and the grouping and dosing regimen are shown in the following Table.
Drinking water containing DSS: an appropriate amount of DSS powder was dissolved in the autoclaved drinking water to prepare a 2% DSS solution.
On day −1, the animals were equally divided into 12 groups with 10 animals in each group. (Refer to Table 1 for specific grouping scheme)
From 9:00 on day 0 to 9:00 on day 6, the mice in groups 2 to 9 were given 2% DSS aqueous solution for 6 days (from day 0 to day 6), after which the mice were allowed to freely drink normal water for 3 days (from 9:00 on day 6 to before necropsy on day 9). The day of modeling was counted as day 0. The DSS aqueous solution was wrapped in tin foil to protect it from light. The DSS aqueous solution was replaced every 2 days.
The mice in group 1 are allowed to drink normal water freely for 9 days (from 9:00 on day 0 to before necropsy on day 9).
The recording frequency was once a day, and 4 levels were rated according to the following standards:
Bloody stool (0: negative; 4: positive);
Stool score (0: normal; 2: loose stool; 4: diarrhea)
Daily Disease Index (DAI) was obtained by dividing the sum the scores of the above 3 parts by 3. DAI-time (day) curve based on the daily DAI score was plotted, and the peak area (AUC) under the curve was calculated. The reduction ratio of DAI AUC was calculated by comparing the administration group with the vehicle group, with a calculation formula of (DAI AUCadministration group-DAI AUCvehicle)/DAI AUCVehicle×100%

Structure (SMILES) | Cmax ([1]; plasma, blood) [ng/mL] | AUC(0-t) ([1]; plasma, blood) [ng·h/mL] | MRT ([1]; plasma, blood) [h] | Tmax ([1]; plasma, blood) [h] | Cmax ([1]; colon) [ng/mL] | AUC(0-t) ([1]; colon) [ng·h/mL] | MRT ([1]; colon) [h] | Tmax ([1]; colon) [h] | Cmax ([1]; ileum) [ng/mL] | AUC(0-t) ([1]; ileum) [ng·h/mL] | AUC(0-inf) ([1]; ileum) [ng·h/mL] | half-life ([1]; ileum) [h] | MRT ([1]; ileum) [h] | Tmax ([1]; ileum) [h] | change in vivo at 10 mg/kg [2] [%] | AUC(0-inf) ([1]; plasma, blood) [ng·h/mL] | half-life ([1]; plasma, blood) [h]
Cc1cc(Nc2nc(N[C@@H]3C[C@H]4CCC[C@@H](C3)N4CCC#N)nc3scnc23)n[nH]1 [Embodiment 278, 3-((3-exo)-3-((7-((5-methyl-1H-pyrazol-3-yl)amino)thiazolo[5,4-d]pyrimidin-5-yl)amino)-9-azabicyclo[3.3.1]non-9-yl)propionitrile] | 1.79 | 3.62 | 1.5 | 0.5 | 1300 | 4640 | 4.26 | 5 | 3700 | 6240 | 6260 | 0.95 | 1.28 | 1 | -34.9 |  | 
Cc1cc(Nc2nc(N[C@@H]3C[C@H]4CC[C@@H](C3)N4S(=O)(=O)N3CC(C#N)C3)nc3ccccc23)n[nH]1 [Embodiment 213, 1-(((3-exo)-3-((4-((5-methyl-1H-pyrazol-3-yl)amino)quinazolin-2-yl)amino)-8-azabicyclo[3.2.1]oct-8-yl)sulfonyl)azetindin-3-formonitrile] | 9.69 | 7.37 | 2.66 | 3 | 1750 | 4930 | 4.92 | 5 | 321 | 1240 |  |  | 4.26 | 5 | -24.4 |  | 
Cc1cc(Nc2nc(N[C@@H]3C[C@H]4CCC[C@@H](C3)N4C(=O)c3ccccn3)nc3sccc23)n[nH]1 [Embodiment 260, ((3-exo)-3-((4-((5-methyl-1H-pyrazol-3-yl)amino)thieno[2,3-d]pyrimidin-2-yl)amino)-9-azabicyclo[3.3.1]non-9-yl)(pyridin-2-yl)methanone] | 24 | 27.3 | 1.37 | 1 | 8880 | 24400 | 3.39 | 3 | 9080 | 18500 | 18700 | 1.01 | 1.57 | 1 | -23.4 | 29.4 | 1.57
COc1ccc2c(Nc3cc(C)[nH]n3)nc(N[C@@H]3C[C@H]4CC[C@@H](C3)N4CCC#N)nc2c1 [Embodiment 169, 3-((3-exo)-3-((7-methoxyl-4-((5-methyl-1H-pyrazol-3-yl)amino)quinazolin-2-yl)amino)-8-azabicyclo[3.2.1]oct-8-yl)propionitrile] | 2.21 | 3.04 | 1.08 | 0.5 | 9010 | 23200 | 2.29 | 5 | 23300 | 68900 |  |  | 4.64 | 1 | -34.3 |  | 
Cc1cc(Nc2nc(N[C@@H]3C[C@H]4CC[C@@H](C3)N4CCC#N)nc3cc(Br)ccc23)n[nH]1 [Embodiment 170, 3-((3-exo)-3-((7-bromine-4-((5-methyl-1H-pyrazol-3-yl)amino)quinazolin-2-yl)amino)-8-azabicyclo[3.2.1]oct-8-yl)propionitrile] | 16 | 36.7 | 4.13 | 7 | 4320 | 13000 | 3.36 | 3 | 49900 | 118000 | 172000 | 5.48 | 2.19 | 1 | -27.9 |  | 
CNCC(=O)N1[C@@H]2CCC[C@H]1C[C@H](Nc1nc(Nc3cc(C)[nH]n3)c3ccsc3n1)C2 [Embodiment 247, 1-((3-exo)-3-((4-((5-methyl-1H-pyrazol-3-yl)amino)thieno[2,3-d]pyrimidin-2-yl)amino)-9-azabicyclo[3.3.1]non-9-yl)-2-(methylamino)-ethane-1-one] |  |  |  |  | 2270 | 10200 | 4.05 | 3 | 13800 | 24700 | 24900 | 0.92 | 1.39 | 1 | -22.1 |  | 
Cc1cc(Nc2nc(N[C@@H]3C[C@H]4CCC[C@@H](C3)N4C(=O)CN3CCOCC3)nc3sccc23)n[nH]1 [Embodiment 246, 1-((3-exo)-3-((4-((5-methyl-1H-pyrazol-3-yl)amino)thieno[2,3-d]pyrimidin-2-yl)amino)-9-azabicyclo[3.3.1]non-9-yl)-2-morpholinoethane-1-one] | 5.56 | 4.76 | 1.46 | 2 | 3260 | 13800 | 4.79 | 7 | 16800 | 27900 | 28400 | 1.81 | 1.28 | 1 | -38.6 |  | 
